Several values for one entry are separate records, joined by “and”; a condition that tells them apart may be missing. Identical values can stand only once.

T1 sequence (O43683 704-1085): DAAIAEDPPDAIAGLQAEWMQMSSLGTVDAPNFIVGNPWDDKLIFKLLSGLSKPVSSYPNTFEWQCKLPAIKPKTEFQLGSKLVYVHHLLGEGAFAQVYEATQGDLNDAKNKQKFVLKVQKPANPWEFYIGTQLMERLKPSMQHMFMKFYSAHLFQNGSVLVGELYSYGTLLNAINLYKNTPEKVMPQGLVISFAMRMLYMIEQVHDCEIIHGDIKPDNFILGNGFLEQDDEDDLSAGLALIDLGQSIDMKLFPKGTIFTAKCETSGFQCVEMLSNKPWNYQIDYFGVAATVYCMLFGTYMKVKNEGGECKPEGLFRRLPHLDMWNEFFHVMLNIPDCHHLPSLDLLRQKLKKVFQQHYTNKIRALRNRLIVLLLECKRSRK

The experiment has as its target T1, catalytic domain of human Bub1 (amino acids 704-1085) (Homo sapiens, UniProt O43683).
T1 construct: catalytic domain of human Bub1 (amino acids 704-1085); His6 (N); made in house; host or cells: insect cells (Hi5)
Nature of the experiment: Bub1 kinase assay (TR-FRET). Type of experiment: biochemical. As to conditions: 10 μM ATP, avg, read-out: Bub1 avg (IC50 [mol/l]). In outline:
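Readout is the 665/620 nm TR-FRET ratio from anti-phosphoserine antibody, Eu-labelled anti-mouse IgG and streptavidin-XL665, scaled between no-enzyme and uninhibited controls. Reaction: 1 μM biotinylated peptide, 10 μM ATP, 60 min, 22 °C, after 15 min compound preincubation with His6-Bub1 (704-1085, insect-expressed, ~200 ng/ml).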
In general terms: Time-resolved FRET reads energy transfer from a long-lived donor to a nearby acceptor.
Consider `Cc1nsc(Nc2ccc(C#N)cn2)c1C(=O)Nc1ccc(OC2CCN(C(=O)OC(C)(C)C)CC2)nc1` [Example 27, tert-Butyl 4-({5-[({5-[(5-cyanopyridin-2-yl)amino]-3-methyl-1,2-thiazol-4-yl}-carbonyl)amino]pyridin-2-yl}oxy)piperidine-1-carboxylate], for which the IC50 is not below 20 µM. Regarding `Cc1nsc(Nc2cnc(C(F)(F)F)cn2)c1C(=O)Nc1ccc(F)c(OCC2CCN(C(CF)CF)CC2)c1` [Example 312, N-(3-{[1-(1,3-difluoropropan-2-yl)piperidin-4-yl]methoxy}-4-fluorophenyl)-3-methyl-5-{[5-(trifluoromethyl)pyrazin-2-yl]amino}-1,2-thiazole-4-carboxamide], the IC50 is not below 20 µM. The result for `Cc1nsc(Nc2cnc(C(F)(F)F)cn2)c1C(=O)Nc1ccc(OCCNCC(F)(F)F)nc1` [Example 322, 3-methyl-N-(6-{2-[(2,2,2-trifluoroethyl)amino]ethoxy}pyridin-3-yl)-5-{[5-(trifluoromethyl)pyrazin-2-yl]amino}-1,2-thiazole-4-carboxamide] reads not below 20 µM; that for `Cc1nsc(Nc2cnc(C(F)(F)F)cn2)c1C(=O)Nc1ccc(N(C)C)c(OCCCN(C)CCC(F)(F)F)c1` [Example 300, N-[4-(dimethylamino)-3-{3-[methyl(3,3,3-trifluoropropyl)amino]propoxy}phenyl]-3-methyl-5-{[5-(trifluoromethyl)pyrazin-2-yl]amino}-1,2-thiazole-4-carboxamide], more than 20 µM; that for `CC(=O)N1CCC(Oc2ccc(NC(=O)c3c(C)nsc3Nc3cnc4ccccc4n3)cn2)CC1` [Example 22, N-{6-[(1-acetylpiperidin-4-yl)oxy]pyridin-3-yl}-3-methyl-5-(quinoxalin-2-ylamino)-1,2-thiazole-4-carboxamide], not below 20 µM. `Cc1nsc(Nc2cnc3ccccc3n2)c1C(=O)Nc1cccc(NS(=O)(=O)C2CCN(C(=O)OC(C)(C)C)CC2)c1` [Example 258, tert-butyl 4-{[3-({[3-methyl-5-(quinoxalin-2-ylamino)-1,2-thiazol-4-yl]carbonyl}amino)phenyl]sulfamoyl} piperidine-1-carboxylate]: the IC50 was more than 20 µM. For the compound `Cc1nsc(Nc2cnc3ccccc3n2)c1C(=O)Nc1ccc(OC2CCN(CC(F)(F)F)CC2)nc1` [Example 21, 3-Methyl-5-(quinoxalin-2-ylamino)-N-(6-{[1-(2,2,2-trifluoroethyl)piperidin-4-yl]oxy}-pyridin-3-yl)-1,2-thiazole-4-carboxamide], the IC50 was not below 20 µM. The same measure for `CCNC(=O)c1cccc(NC(=O)c2c(C)nsc2Nc2ccc(C#N)cn2)c1` [Example 252, 5-[(5-cyanopyridin-2-yl)amino]-N-[3-(ethylcarbamoyl)phenyl]-3-methyl-1,2-thiazole-4-carboxamide]: more than 20 µM; for `Cc1nsc(Nc2cnc3ccccc3n2)c1C(=O)Nc1cccc(C(=O)NC2CC2)c1` [Example 249, N-[3-(cyclopropylcarbamoyl)phenyl]-3-methyl-5-(quinoxalin-2-ylamino)-1,2-thiazole-4-carboxamide]: 1.2 µM; for `Cc1nsc(Nc2cnc3ccccc3n2)c1C(=O)Nc1cccc(NS(=O)(=O)C2CN(CCC(F)(F)F)C2)c1` [Example 288, 3-methyl-5-(quinoxalin-2-ylamino)-N-[3-({[1-(3,3,3-trifluoropropyl)azetidin-3-yl]sulfonyl}amino)phenyl]-1,2-thiazole-4-carboxamide]: more than 20 µM. Consider `Cc1nsc(Nc2cnc(C(F)(F)F)cn2)c1C(=O)Nc1ccc(OCCCNCC(F)F)nc1` [Example 293, N-(6-{3-[(2,2-difluoroethyl)amino]propoxy}pyridin-3-yl)-3-methyl-5-{[5-(trifluoromethyl)pyrazin-2-yl]amino}-1,2-thiazole-4-carboxamide], for which the IC50 was more than 20 µM. The result for `Cc1nsc(Nc2cnc(C(F)(F)F)cn2)c1C(=O)Nc1ccc(C(=O)NC2CN(CC(F)(F)F)C2)cc1` [Example 270, 3-methyl-N-(4-{[1-(2,2,2-trifluoroethyl)azetidin-3-yl]carbamoyl}phenyl)-5-{[5-(trifluoromethyl)pyrazin-2-yl]amino}-1,2-thiazole-4-carboxamide] reads more than 20 µM; that for `Cc1nsc(Nc2cnc(C(F)(F)F)cn2)c1C(=O)Nc1ccc(F)c(OCCCN(C)CC(F)F)c1` [Example 301, N-(3-{3-[(2,2-difluoroethyl)(methyl)amino]propoxy}-4-fluorophenyl)-3-methyl-5-{[5-(trifluoromethyl)pyrazin-2-yl]amino}-1,2-thiazole-4-carboxamide], more than 20 µM; that for `Cc1nsc(Nc2cnc(C(F)(F)F)cn2)c1C(=O)Nc1ccc(F)c(OCCCN(C)CC(F)(F)F)c1` [Example 302, N-(4-fluoro-3-{3-[methyl(2,2,2-trifluoroethyl)amino]propoxy}phenyl)-3-methyl-5-{[5-(trifluoromethyl)pyrazin-2-yl]amino}-1,2-thiazole-4-carboxamide], more than 20 µM. With `COC(=O)CCCc1ccc(NC(=O)c2c(C)nsc2Nc2cc(C#N)ccn2)cc1` [Example 256, methyl 4-{4-[({5-[(4-cyanopyridin-2-yl)amino]-3-methyl-1,2-thiazol-4-yl}carbonyl)amino]phenyl}butanoate], the IC50 is more than 20 µM. The result for `Cc1nsc(Nc2cnc(C(F)(F)F)cn2)c1C(=O)Nc1ccc(OCCCNCCC(F)(F)F)nc1` [Example 294, 3-methyl-5-{[5-(trifluoromethyl)pyrazin-2-yl]amino}-N-(6-{3-[(3,3,3-trifluoropropyl)amino]propoxy}pyridin-3-yl)-1,2-thiazole-4-carboxamide] reads more than 20 µM. The result for `Cc1nsc(Nc2cnc(C(F)(F)F)cn2)c1C(=O)Nc1ccc(OCCCO)nc1` [Example 279, N-[6-(3-hydroxypropoxy)pyridin-3-yl]-3-methyl-5-{[5-(trifluoromethyl)pyrazin-2-yl]amino}-1,2-thiazole-4-carboxamide] reads > 20 µM and 19 µM; that for `Cc1nsc(Nc2cnc(C(F)(F)F)cn2)c1C(=O)Nc1ccc(OC2CCN(CC(F)F)C2)nc1` (stereo not drawn) [Example 296, N-(6-{[1-(2,2-difluoroethyl)pyrrolidin-3-yl]oxy}pyridin-3-yl)-3-methyl-5-{[5-(trifluoromethyl)pyrazin-2-yl]amino}-1,2-thiazole-4-carboxamide], more than 20 µM. The same measure for `CCN1CCC(Oc2ccc(NC(=O)c3c(C)nsc3Nc3cc(C#N)ccn3)cn2)CC1` [Example 26, 5-[(4-Cyanopyridin-2-yl)amino]-N-{6-[(1-ethylpiperidin-4-yl)oxy]pyridin-3-yl}-3-methyl-1,2-thiazole-4-carboxamide]: not below 20 µM; for `Cc1nsc(Nc2cnc3ccccc3n2)c1C(=O)Nc1ccc(N2CCN(C(=O)OC(C)(C)C)CC2)nc1` [Example 248, tert-butyl 4-[5-({[3-methyl-5-(quinoxalin-2-ylamino)-1,2-thiazol-4-yl]carbonyl}amino)pyridin-2-yl]piperazine-1-carboxylate]: more than 20 µM; for `Cc1nsc(Nc2cnc3ccccc3n2)c1C(=O)Nc1cccc(NS(=O)(=O)C2CCN(CC(F)(F)F)CC2)c1` [Example 281, 3-methyl-5-(quinoxalin-2-ylamino)-N-[3-({[1-(2,2,2-trifluoroethyl)piperidin-4-yl]sulfonyl}amino)phenyl]-1,2-thiazole-4-carboxamide]: more than 20 µM.
